Where a name gives a salt, the structure may show the parent alone.
test system: Reduced glutathione in salivary gland cell clusters (SGm); experiment: Glutathione assay in salivary gland tissue chip, 4 days post-radiation (15 Gy); also first screen of Selleck library at 100 μM; assay type: cell-based, mouse; details: first screen of Selleck library at 100 μM, 15 Gy, 4 days post-radiation
Source text: A salivary gland tissue chip was leveraged for high-content drug screening to identify novel radioprotective compounds (Song Y et al., Commun Biol., 2021, 4). The chip platform consists of an array of near-spherical microbubble (MB) cavities formed in poly(dimethylsiloxane) (PDMS). Each chip, containing ~50 MBs, affixed within wells of a 96-well plate (FIG. 1C). Primary salivary gland cell clusters (FIG. 1A), suspended in a poly(ethylene glycol) (PEG) hydrogel precursor and MMP-degradable peptide crosslinker solution together with the photoinitiator LAP, were applied to the chip allowing the clusters to deposit into the MBs (FIG. 1D). In situ polymerization of the hydrogel was achieved using long-wave, low intensity UV light. Over time, the cell clusters aggregate and proliferate to form SGm (FIG. 1C).
The glutathione assay was used to measure glutathione levels at various time points post-radiation to determine the optimal time point for detecting differences between 0 Gy and 15 Gy. Based on the data, the greatest signal separation was measured at 4 days post-irradiation (FIG. 9). This timepoint is similar to previous reports on decreases in glutathione post-radiation and was used for all experiments moving forward (Meeks L et al., Physiological Genomics, 2021, 53: 85-98).
The dose response to WR-1065 was examined to determine effective concentrations of WR-1065 to prevent the reduction of glutathione levels post-radiation. A SGm tissue chip was cultured for 4 days to allow spheres to form. The chip was then treated with WR-1065 30 minutes before and during radiation, followed by drug wash out with media 30 minutes post-radiation (FIG. 2A). This dosing scheme is consistent with the use of Amifostine clinically and with previous work. The glutathione assay was performed at 4 days post-radiation (FIG. 2A). […] Moreover, it is clinically relevant as 15-30 minutes before radiation, patients are administered Amifostine intravenously at 200 mg/m (Escobar A et al., IntechOpen, 2019, pp. 15-37; Eisbruch A, J Clin Oncol, 2011, 29: 119-121; Bardet, E. et al. Semin Oncol, 2002, 29, 57-60). Assuming an average adult body surface area of 17,000 cm^2 and a blood volume of 1.35 gallons (5.1 liters), Amifostine is administered at 300 μM (Mosteller, R. D. N Engl J Med 317, 1098 (1987)).
The glutathione and senescence assays were used to screen a library of FDA-approved drugs (Selleck Chemicals) at 100 μM. Drugs were first screened using the glutathione assay according to the timeline depicted in FIG. 2A. Any compound resulting in statistically similar glutathione levels compared to 0 Gy control was considered a hit (FIG. 4, grey circles). Hits with the glutathione assay were then tested with the senescence assay and considered a “double hit” if senescence levels were statistically similar to levels at 0 Gy (FIG. 4, black circles). […] While this hit rate is higher than many other drug screening reports (0.1-0.3%), this may be due to the statistical rigor afforded by the tissue chip format (Blanchard, C et al., Antimicrob Agents Chemother 2016, 60, 862-872; Colquhoun, J. M et al., Antibiotics (Basel) 2019, 8, 48). Additionally, phenotypic screens generally have higher hit rates than target-based screens (>1%) (Moffat, J. G et al., Nature Reviews Drug Discovery 2017, 16, 531-543; Rottman, M et al., Science 2010, 329, 1175-1180).
Mice were euthanized and the submandibular glands (SMG) were removed and chopped with a razor blade for 5 min. The tissue was then incubated in Hank's buffered salt solution (HBSS) containing 15 mM HEPES, 50 U/mL collagenase type II (Thermo Fischer 17101015), and 100 U/mL hyaluronidase (Sigma Aldrich H3506) at 37 °C for 30 min. Cells were centrifuged, then resuspended in HBSS with 15 mM HEPES and passed through 100 μm and 20 μm mesh filters to isolate clusters between 20-100 μm. The digestion protocol produces cell cluster sizes evenly distributed between 20 to 100 μm (Song, Y et al., Advanced Healthcare Materials). […]

Compound	Glutathione normalized mean intensity
CCCOc1ccc2nc(NC(=O)OC)[nH]c2c1 [Oxibendazole]	0.747
CC(C)(S)[C@@H](N)C(=O)O [Penicillamine (Cuprimine)]	0.7681
O=C1c2ccccc2C(=O)C1c1ccccc1 [Phenindione (Rectadione)]	0.6802
[I-].[K+] [Potassium iodide]	0.386
CC(C(=O)O)c1ccc2c(c1)Cc1cccnc1O2 (stereo not drawn) [Pranoprofen]	0.7582
CC(=O)[C@H]1CC[C@H]2[C@@H]3CC=C4C[C@@H](O)CC[C@]4(C)[C@H]3CC[C@]12C [Pregnenolone]	0.6057
CCC1(c2ccccc2)C(=O)NCNC1=O [Primidone (Mysoline)]	0.8725
CCCOc1ccc(C(=O)OCCN(CC)CC)cc1N [Proparacaine HCl]	0.7045
CCCc1cc(C(N)=S)ccn1 [Protionamide (Prothionamide)]	0.6328
CCOC(=O)[C@H](CCc1ccccc1)N[C@@H](C)C(=O)N1[C@H](C(=O)O)C[C@@H]2CCC[C@@H]21 [Ramipril (Altace)]	0.7145
CNC(=C[N+](=O)[O-])NCCSCc1ccc(CN(C)C)o1 [Ranitidine (Zantac)]	0.4295
COc1ccccc1OCC(O)CN1CCN(CC(=O)Nc2c(C)cccc2C)CC1 (stereo not drawn) [Ranolazine (Ranexa)]	0.5015
CO[C@H]1/C=C/O[C@@]2(C)Oc3c(C)c(O)c4c(O)c(c5c(nc6cc(C)ccn65)c4c3C2=O)NC(=O)/C(C)=C\C=C\[C@H](C)[C@H](O)[C@@H](C)[C@@H](O)[C@@H](C)[C@H](OC(C)=O)[C@@H]1C [Rifaximin (Xifaxan)]	0.3977
CC(N)C12CC3CC(CC(C3)C1)C2 (stereo not drawn) [Rimantadine (Flumadine)]	0.3987
O=P(O)(O)C(O)(Cc1cccnc1)P(=O)(O)O [Risedronic acid (Actonel)]	0.6565
CC(=O)OCC(=O)NCCCOc1cccc(CN2CCCCC2)c1 [Roxatidine acetate HCl]	0.4245
CCC(C)(C)C(=O)O[C@H]1C[C@@H](C)C=C2C=C[C@H](C)[C@H](CC[C@@H]3C[C@@H](O)CC(=O)O3)[C@H]21 [Simvastatin (Zocor)]	0.1568

Compound	Glutathione normalized mean intensity
C[C@@H]1CN(c2c(F)c(N)c3c(=O)c(C(=O)O)cn(C4CC4)c3c2F)C[C@H](C)N1 [Sparfloxacin]	0.7607
CC1(C)[C@H](C(=O)O)N2C(=O)C[C@H]2S1(=O)=O [Sulbactam]	0.6491
Cc1nnc(NS(=O)(=O)c2ccc(N)cc2)s1 [Sulfamethizole (Proklar)]	0.4719
Cc1cc(NS(=O)(=O)c2ccc(N)cc2)no1 [Sulfamethoxazole]	0.8442
COc1cc(NS(=O)(=O)c2ccc(N)cc2)nc(OC)n1 [Sulphadimethoxine]	0.8846
COc1cc([C@@H]2c3cc4c(cc3[C@@H](O[C@@H]3O[C@@H]5CO[C@@H](c6cccs6)O[C@H]5[C@H](O)[C@H]3O)[C@H]3COC(=O)[C@H]23)OCO4)cc(OC)c1O [Teniposide (Vumon)]	0.4095
Clc1ccc(C(Cn2ccnc2)OCc2ccsc2Cl)c(Cl)c1 (stereo not drawn) [Tioconazole]	0.6333
Cc1c(Cl)cccc1Nc1ccccc1C(=O)O [Tolfenamic acid]	0.8008
NCC1CCC(C(=O)O)CC1 (stereo not drawn) [Tranexamic acid (Transamin)]	0.7568
O=c1[nH]c(=O)n([C@H]2C[C@H](O)[C@@H](CO)O2)cc1C(F)(F)F [Trifluridine (Viroptic)]	0.7468
CN1[C@@H]2CC[C@H]1C[C@@H](OC(=O)c1c[nH]c3ccccc13)C2 [Tropisetron]	0.5993
CC(C)[C@H](N)C(=O)OCCOCn1cnc2c(=O)[nH]c(N)nc21 [Valaciclovir HCl]	0.6362
CCCCC(=O)N(Cc1ccc(-c2ccccc2-c2nn[nH]n2)cc1)[C@H](C(=O)O)C(C)C [Valsartan (Diovan)]	0.6351
Nc1ncnc2c1ncn2[C@@H]1O[C@H](CO)[C@@H](O)[C@@H]1O [Vidarabine (Vira-A)]	0.3742
Bacitracin zinc	0.6175
Vitamin B12	0.7029
